Measurements taken from PMC9065348 (Frontiers in Pharmacology, 2022).
Like-named read-outs stand apart in the source and are kept apart here.

Legend:
CYP2C9 [1] = target: T1, CYP2C9 (Homo sapiens, UniProt P11712); conditions: Human liver microsomes, cited from earlier work
T1 construct: respectively, were mixed with human liver microsomes; tissue In Vitro Technologies (Noble Park North, VIC, Australia); host or cells: human liver microsomes

CYP3A4 = CYP3A4 (Homo sapiens, UniProt P08684); conditions: Human liver microsomes, cited from earlier work
CYP3A4, sequence (P08684 whole entry): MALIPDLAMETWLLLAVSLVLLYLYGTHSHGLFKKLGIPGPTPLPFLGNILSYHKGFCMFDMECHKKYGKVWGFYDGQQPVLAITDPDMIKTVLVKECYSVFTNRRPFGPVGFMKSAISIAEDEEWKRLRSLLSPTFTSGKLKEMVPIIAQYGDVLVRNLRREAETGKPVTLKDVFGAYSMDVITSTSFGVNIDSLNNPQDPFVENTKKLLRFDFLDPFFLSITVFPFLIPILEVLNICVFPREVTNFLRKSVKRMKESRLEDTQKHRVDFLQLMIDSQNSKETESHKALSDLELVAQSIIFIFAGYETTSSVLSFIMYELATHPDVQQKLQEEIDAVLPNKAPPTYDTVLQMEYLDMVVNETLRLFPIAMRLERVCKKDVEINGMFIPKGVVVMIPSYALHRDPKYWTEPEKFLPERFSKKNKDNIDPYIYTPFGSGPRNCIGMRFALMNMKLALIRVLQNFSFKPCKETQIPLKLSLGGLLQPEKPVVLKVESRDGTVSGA

[2] = tested on: hypertension rat model established by L-NAME; experiment: Antihypertensive efficacy (tail artery blood pressure) in L-NAME hypertension rat model; format: in vivo, Wistar rats
Description: A total of 48 Wistar rats were treated with L-NAME (60 mg/kg·d^-1) intragastrically for 4 weeks ([[…] al., 2003]; [[…] et al., 2002]; [Ahad et al., 2020a]). Systolic blood pressure (SBP) ≥140 mmHg was considered to be a successful hypertension model and was used to maintain L-NAME treatment until animal death. The blood pressure measurement method was performed as described in previous literature studies and the blood pressure of each rat was determined by the average of 5 measurements by a non-invasive rat tail sphygmomanometer (BP-2006A, Beijing Softron Biotechnology Co., Ltd.) ([Gillis et al., 2020]; [Dias et al., 2021]). This experimental protocol was approved by the Animal Care and Use Committee of Shanghai University of Traditional Chinese Medicine. A total of 36 hypertensive rats and 6 normal rats were included in this experiment. […] A total of 6 normal rats were assigned to a blank group without any treatment. Following the treatment of the rats for 2 weeks, the blood pressure of their tail artery was measured.

[3] = Pharmacokinetics of LOS and EXP3174 in the hypertension rat model (LC-MS); format: in vivo, Wistar rats; conditions: hypertensive rats (L-NAME); for AUC(0-inf) / AUC(0-t) / Cmax / MRT / Tmax / half-life: Wistar, rat, plasma, po, 10 mg/kg/day
Description: All samples were centrifuged at 3,000 rpm for 10 min, and the upper plasma was collected for Liquid Chromatography Mass Spectrometry (LC-MS) analysis. The LOS and EXP3174 in rat serum were quantitatively determined by a validated LC-MS method. The LC-MS system contained a Q/Exactive Quadrupole/Electrostatic Field Track Well High Resolution Mass Spectrometer (Thermo Fisher Scientific, Waltham, MA, United States) and a Dionex Ultimate 3,000 High-pressure liquid chromatography (Dionex, Subsidiary, CA, United States) system equipped with an electro-spray ionization source. […] The mobile phase included 0.1% formic acid aqueous solution (C) and acetonitrile (D) at a flow rate of 0.3 ml/min. The proportion of phase B in the mobile phase was adjusted from 40 to 5% at 0-2 min, 5% at 2-4 min, 40% at 4-5 min. The parameters of mass spectrometry for each analyte were shown in Supplementary Figure S1 . The collected data were analyzed through Xcalibur 4.1 software. The serum drug concentration data in each sample were obtained by calculation. The pharmacokinetic parameters corresponding to each rat were calculated using the “non-compartmental model” of the “PK solution 2.0TM (Summit Research Services, United States)” pharmacokinetic software. The half-life (t 1/2 ), peak drug concentration (C max), peak time (T max), the area under the plasma concentration-time curve (AUC) from time zero to the time of the last measurable plasma concentration (AUC 0-t ), AUC from time zero to infinity (AUC 0-∞ ), mean residence time (MRT), clearance (CL), apparent volume of distribution (V d ), and relative bioavailability (Frel) were calculated.

[4] = Pharmacokinetics of LOS and EXP3174 in non-hypertensive Wistar rats (LC-MS); format: in vivo; conditions: Wistar rats without L-NAME
Description: All groups were treated for 2 weeks and the blood collection time and methods of serum management were the same as those mentioned above. The LOS and EXP3174 in rat serum were quantitatively determined by a validated LC-MS method. The LC-MS system contained a Q/Exactive Quadrupole/Electrostatic Field Track Well High Resolution Mass Spectrometer (Thermo Fisher Scientific, Waltham, MA, United States) and a Dionex Ultimate 3,000 High-pressure liquid chromatography (Dionex, Subsidiary, CA, United States) system equipped with an electro-spray ionization source. […] The mobile phase included 0.1% formic acid aqueous solution (C) and acetonitrile (D) at a flow rate of 0.3 ml/min. The proportion of phase B in the mobile phase was adjusted from 40 to 5% at 0–2 min, 5% at 2–4 min, 40% at 4–5 min. The parameters of mass spectrometry for each analyte were shown in Supplementary Figure S1 . The collected data were analyzed through Xcalibur 4.1 software. The serum drug concentration data in each sample were obtained by calculation. The pharmacokinetic parameters corresponding to each rat were calculated using the “non-compartmental model” of the “PK solution 2.0TM (Summit Research Services, United States)” pharmacokinetic software. The half-life (t 1/2 ), peak drug concentration (C max), peak time (T max), the area under the plasma concentration-time curve (AUC) from time zero to the time of the last measurable plasma concentration (AUC 0-t ), AUC from time zero to infinity (AUC 0-∞ ), mean residence time (MRT), clearance (CL), apparent volume of distribution (V d ), and relative bioavailability (Frel) were calculated.

[5] = tested on: hypertension rat model established with L-NAME; set-up: method as in Ahad et al., 2020b; conditions: within 2 h following 10 mg kg^−1 LOS; rat model after 2 weeks L-NAME; ref Ahad et al., 2020b; cited from earlier work
CYP2C9 [6] = experiment: Western blot of rat liver tissue, CYP2C9 protein expression; format: in vivo; conditions: liver of hypertensive rats; comparison between all groups; p > 0.05
Description: The immunoreactive bands were detected by chemiluminescence.

[7] = cited from earlier work
[8] = 4 weeks of L-NAME 60 mg/kg/d intragastric, model group
[9] = 6 weeks of continuous L-NAME, model group
[10] = LOS 10 mg/kg/d ig + SMI 2 ml/kg/d tail vein (SMI-L+LOS group)
[11] = LOS 10 mg/kg/d ig + SMI 4 ml/kg/d tail vein (SMI-M+LOS group)
[12] = LOS 10 mg/kg/d ig + SMI 6 ml/kg/d tail vein (SMI-H+LOS group)
[13] = LOS 10 mg/kg/d ig alone (LOS group)
[14] = LOS 10 mg/kg/d ig + SMI 6 ml/kg/d tail vein (BLANK + SMI-H+LOS group)
[15] = LOS 10 mg/kg/d ig alone (BLANK + LOS group)
[16] = rat, serum, po, LOS 10 mg/kg/d ig alone (BLANK + LOS group)
[17] = vs model group, 2 weeks treatment, SMI 6 ml/kg/d tail vein (SMI-H), LOS 10 mg/kg/d intragastric

T1 sequence (P11712 whole entry): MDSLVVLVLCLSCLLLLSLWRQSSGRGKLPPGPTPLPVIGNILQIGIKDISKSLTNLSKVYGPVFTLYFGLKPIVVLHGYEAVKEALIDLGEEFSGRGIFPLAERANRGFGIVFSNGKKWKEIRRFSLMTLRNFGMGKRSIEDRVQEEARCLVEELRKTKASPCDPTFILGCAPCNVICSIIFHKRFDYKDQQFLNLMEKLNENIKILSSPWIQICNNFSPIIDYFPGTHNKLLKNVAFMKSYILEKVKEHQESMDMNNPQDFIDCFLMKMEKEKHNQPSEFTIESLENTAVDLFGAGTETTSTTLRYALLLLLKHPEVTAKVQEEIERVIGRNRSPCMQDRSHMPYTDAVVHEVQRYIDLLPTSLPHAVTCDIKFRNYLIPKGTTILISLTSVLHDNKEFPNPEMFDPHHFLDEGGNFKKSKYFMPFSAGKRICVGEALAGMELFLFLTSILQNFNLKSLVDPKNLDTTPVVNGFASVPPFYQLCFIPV

## CC(C)=CCC[C@](C)(O[C@@H]1O[C@H](CO[C@@H]2O[C@H](CO)[C@@H](O)[C@H](O)[C@H]2O)[C@@H](O)[C@H](O)[C@H]1O)[C@H]1CC[C@]2(C)[C@@H]1[C@H](O)C[C@@H]1[C@@]3(C)CC[C@H](O[C@@H]4O[C@H](CO)[C@@H](O)[C@H](O)[C@H]4O[C@@H]4O[C@H](CO)[C@@H](O)[C@H](O)[C@H]4O)C(C)(C)[C@@H]3CC[C@]12C [Ginsenoside Rb1]
CYP2C9 [1]; ref Hao et al. (2008)
  Effects on CYP2C9: Inhibition
CYP2C9 [1]; ref He and Edeki, (2004)
  Effects on CYP2C9: Inhibition
CYP3A4; ref Hao et al. (2008)
  Effects on CYP3A4: Inhibition
CYP3A4; ref He and Edeki, (2004)
  Effects on CYP3A4: Inhibition

## COC(=O)[C@@H](N)CCCNC(N)=N[N+](=O)[O-] [L-NAME, N (omega)-nitro-L-arginine methyl ester]
[2]; [8]
  increase in DBP: 34.83 ± 8.82 mmHg
  increase in MAP: 36.00 ± 6.10 mmHg
  increase in SBP: 37.83 ± 8.52 mmHg
[2]; [9]
  average increase in DBP: 42.33 ± 15.34 mmHg
  average increase in MAP: 46.00 ± 13.11 mmHg
  average increase in SBP: 50.50 ± 6.09 mmHg

## CCCCc1nc(Cl)c(CO)n1Cc1ccc(-c2ccccc2-c2nn[nH]n2)cc1 [LOS, losartan potassium]
[3]; [10]
  AUC(0-inf): 1210 ng·h/mL
  AUC(0-t): 1110 ng·h/mL
  Cmax: 125 ± 53.6 ng/mL
  MRT: 8.54 ± 1.8 h
  Tmax: 2.2 ± 0.84 h
  half-life: 6.74 ± 0.64 h
  CL: 27,497.47 ± 14,702.73 ml/h/kg
  Vd: 264,405.76 ± 142,122.69 ml/kg
[3]; [11]
  AUC(0-inf): 1430 ng·h/mL
  AUC(0-t): 1250 ng·h/mL
  Cmax: 132 ± 35 ng/mL
  MRT: 11.3 ± 2.22 h
  Tmax: 1.5 ± 0.55 h
  half-life: 8.41 ± 1.43 h
  CL: 17,964.40 ± 3,185.66 ml/h/kg
  Vd: 217,016.60 ± 45,076.20 ml/kg
[3]; [12]
  AUC(0-inf): 1420 ng·h/mL
  AUC(0-t): 1240 ng·h/mL
  Cmax: 156 ± 64.1 ng/mL
  MRT: 12.1 ± 1.02 h
  Tmax: 2.33 ± 0.52 h
  half-life: 9.92 ± 0.96 h
  CL: 19,127.96 ± 5,549.27 ml/h/kg
  Vd: 277,463.55 ± 98,140.99 ml/kg
[3]; [13]
  AUC(0-inf): 841 ± 232 ng·h/mL
  AUC(0-t): 787 ± 213 ng·h/mL
  Cmax: 112 ± 41.7 ng/mL
  MRT: 8.18 ± 0.89 h
  Tmax: 2 ± 0.89 h
  half-life: 6.19 ± 0.43 h
  CL: 32,042.39 ± 10,551.59 ml/h/kg
  Vd: 282,441.65 ± 73,729.85 ml/kg
[3]; SMI-H + LOS group (SMI 6 ml/kg/d)
  increase of AUC 0-t compared with LOS group: 58.1%
[4]; [14]
  CL: 5,327.27 ± 1,010.94 ml/h/kg
  Vd: 67,493.75 ± 17,745.97 ml/kg
[4]; [15]
  CL: 10,392.48 ± 1,296.50 ml/h/kg
  Vd: 90,573.23 ± 13,394.06 ml/kg
[4]; [16]
  AUC(0-inf): 975 ± 121 ng·h/mL
  AUC(0-t): 911 ± 115 ng·h/mL
  Cmax: 108 ± 6.26 ng/mL
  MRT: 8.6 ± 0.54 h
  Tmax: 1.67 ± 0.52 h
  half-life: 6.03 ± 0.19 h
[2]; [17]
  decrease in DBP: 12.14%
  decrease in MAP: 11.92%
  decrease in SBP: 6.32%
[5]
  decrease in SBP: 14.7%
CYP2C9 [6]
  CYP2C9 expression levels: no significant differences
[7]; with Ginkgo leaf tablets, ref Dong et al., 2018
  increase of AUC 0-t of LOS: 70%
[7]; with Glimepirea, ref Chen et al., 2015
  increase of AUC 0-t of LOS: 11.18%
[7]; with licochalcon A, ref Choi et al., 2013
  increase of AUC of LOS: 33.38%

## CC(C)=CCC[C@](C)(O[C@@H]1O[C@H](CO)[C@@H](O)[C@H](O)[C@H]1O)[C@H]1CC[C@]2(C)[C@@H]1[C@H](O)C[C@@H]1[C@@]3(C)CC[C@H](O)C(C)(C)[C@@H]3[C@@H](O[C@@H]3O[C@H](CO)[C@@H](O)[C@H](O)[C@H]3O[C@@H]3O[C@@H](C)[C@H](O)[C@@H](O)[C@H]3O)C[C@]12C [Re, Ginsenoside Re]
CYP2C9 [1]; ref Hao et al. (2008)
  Effects on CYP2C9: Inhibition
CYP3A4; ref Hao et al. (2008)
  Effects on CYP3A4: Inhibition

## CC(C)=CCC[C@](C)(O[C@@H]1O[C@H](CO)[C@@H](O)[C@H](O)[C@H]1O)[C@H]1CC[C@]2(C)[C@@H]1[C@H](O)C[C@@H]1[C@@]3(C)CC[C@H](O)C(C)(C)[C@@H]3[C@@H](O[C@@H]3O[C@H](CO)[C@@H](O)[C@H](O)[C@H]3O)C[C@]12C [Rg1, Ginsenoside Rg1]
CYP2C9 [1]; ref Hao et al. (2008)
  Effects on CYP2C9: Inhibition
CYP3A4; ref Hao et al. (2008)
  Effects on CYP3A4: Inhibition

## COc1cc2c(c(OC)c1OC)-c1c(cc(OC)c(OC)c1OC)C[C@](C)(O)[C@@H](C)C2 [schizandrin]
CYP3A4; ref Cao et al. (2009)
  Effects on CYP3A4: Inhibition
